Laboratory results taken from patent US11591366B2, “Macrocyclic compounds and methods of preventing or treating pain” (SOCPRA SCIENCES SANTÉ ET HUMAINES S.E.C., priority 2017, dated 2023).

Columns and labels:
rNTS2 receptor = target: T1, rNTS2 receptor (Rattus norvegicus, UniProt Q63384); assay: Competitive radioligand binding assay on the rNTS2 receptor; settings: 1 μM macrocycle dose; read-out: NTS2 % displ at 1 μM (radiolabeled neurotensin displaced)
T1 construct: expressed in transfected cells; host or cells: DRG-F11 cells, transient transfection, membranes
T1 sequence (Q63384 1-416): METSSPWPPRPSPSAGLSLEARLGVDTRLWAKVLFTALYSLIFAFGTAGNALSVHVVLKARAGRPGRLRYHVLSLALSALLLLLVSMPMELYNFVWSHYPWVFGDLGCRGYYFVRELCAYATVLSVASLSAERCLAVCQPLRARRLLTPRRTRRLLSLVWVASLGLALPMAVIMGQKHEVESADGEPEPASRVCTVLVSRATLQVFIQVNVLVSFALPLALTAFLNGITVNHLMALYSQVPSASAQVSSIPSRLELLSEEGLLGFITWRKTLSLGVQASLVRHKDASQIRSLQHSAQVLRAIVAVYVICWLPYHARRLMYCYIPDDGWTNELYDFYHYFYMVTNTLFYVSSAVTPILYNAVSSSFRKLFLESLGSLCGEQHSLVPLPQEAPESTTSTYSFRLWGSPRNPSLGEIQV
Method: DRG-F11 cells were cultured in DMEM supplemented with 10% FBS, 100 U/mL penicillin, 100 μg/mL streptomycin, and 20 mM HEPES.
Membranes were prepared by scraping cells off the culture dish with 50 mM Tris ph 7.5 and centrifuged at 15,000 g for 5 min at 4° C. The pellet was resuspended in 10 mM Tris, 1 mM EDTA pH 7.5 and sonicated for 30 s prior to be centrifugated at 15,000 g for 30 min at 4° C. The pellet was then re-suspended in binding 9 buffer. […] All other steps in binding experiments were unchanged comparing to the one using the NTS1 receptor.

hNTS1 (Gαq pathway) = target: T2, hNTS1 (Gαq pathway) (Homo sapiens, UniProt P30989); assay: BRET biosensor assay, Gαq dissociation; assay type: cell-based
T2 construct: expressed in transfected cells; host or cells: CHO-K1, transient transfection with PEI
Method: CHO-K1 cells were cultured in DMEM-F12 supplemented with 10% FBS, 100 U/mL penicillin, 100 μg/mL streptomycin, and 20 mM HEPES at 37° C. in a humidified chamber at 5% CO2. Cells were seeded into T75 flasks at a density of 20 000 cells/cm^2; 24 h later, cells were transfected with plasmids coding for hNTS1-Green fluorescent protein 10(GFP10)/Rluc (Renilla Luciferase)II-β-arrestin 1 or hNTS1-GFP10/RlucII-β-arrestin2, or with hNTS1/Gαq-RlucII/Gβ1/IGFP10-Gγ1 or hNTS1/Gα13-RlucII/Gβ1/GFP10-Gγ1 using polyethylenimine (PEI). Cells were transferred into 96-well plates at a concentration of 50 000 cells/well 24 h after transfection and incubated at 37° C. overnight. […] After stimulation, coelenterazine 400A was added in each well to a final concentration of 5 μM and the plate was read using filter selected for BRET2 measurement (BRET2 High efficiency filter set, λemRlucII: 410±80 nm, λemGFP10: 515±40 nm) on a Mithras 2 plate reader (Berthold Technologies, Tennessee, USA). BRET2 ratio was determined as GFP10em/RlucIIem. […] EC50 (Effective Concentration 50) values were determined using the dose response-stimulation log(agonist) vs response (three parameters) and represent the mean±SEM of at least three separate experiments, each performed in triplicate.
NTS1 is capable of activating several signaling pathways, thus the activation of Gαq, Gα13, β-arrestin 1 and β-arrestin 2 pathways was monitored. […]

[1] = target: T3, hNTS1 (β-arrestin 2 recruitment) (Homo sapiens, UniProt P30989); assay: BRET biosensor assay, β-arrestin 2 recruitment; assay type: cell-based
T3 construct: expressed in transfected cells; host or cells: CHO-K1, transient transfection with PEI
Method: CHO-K1 cells were cultured in DMEM-F12 supplemented with 10% FBS, 100 U/mL penicillin, 100 μg/mL streptomycin, and 20 mM HEPES at 37° C. in a humidified chamber at 5% CO2. Cells were seeded into T75 flasks at a density of 20 000 cells/cm^2; 24 h later, cells were transfected with plasmids coding for hNTS1-Green fluorescent protein 10(GFP10)/Rluc (Renilla Luciferase)II-β-arrestin 1 or hNTS1-GFP10/RlucII-β-arrestin2, or with hNTS1/Gαq-RlucII/Gβ1/IGFP10-Gγ1 or hNTS1/Gα13-RlucII/Gβ1/GFP10-Gγ1 using polyethylenimine (PEI). Cells were transferred into 96-well plates at a concentration of 50 000 cells/well 24 h after transfection and incubated at 37° C. overnight. They were then washed with PBS and 90 μL HBSS was added in each well. […] After stimulation, coelenterazine 400A was added in each well to a final concentration of 5 μM and the plate was read using filter selected for BRET2 measurement (BRET2 High efficiency filter set, λemRlucII: 410±80 nm, λemGFP10: 515±40 nm) on a Mithras 2 plate reader (Berthold Technologies, Tennessee, USA). BRET2 ratio was determined as GFP10em/RlucIIem. […] EC50 (Effective Concentration 50) values were determined using the dose response-stimulation log(agonist) vs response (three parameters) and represent the mean±SEM of at least three separate experiments, each performed in triplicate.
NTS1 is capable of activating several signaling pathways, thus the activation of Gαq, Gα13, β-arrestin 1 and β-arrestin 2 pathways was monitored. The ability of compounds of the invention to activate the NTS1 receptor was assessed using Bioluminescence Resonance Energy Transfer (BRET)-based biosensors, reporting the dissociation of G proteins (Table III, column EC50 Gq) and the recruitment of β-arrestins to the receptor (Table III, column EC50 βarr).

Plasma stability assay = assay type: in vitro ADME; settings: rat plasma at 37° C.
Method: Rat plasma was obtained by centrifugation of rat blood (13000 rpm, 5 min, 4° C.). […] Proteolytic degradation was quenched by adding 70 μL of acetonitrile/ethanol (1:1), 0.5% nicotinamide solution and vortexing. […] Data were analyzed using GraphPad Prism 7's one phase decay equation.

Sprague-Dawley rats [2] = assay: Tail-flick test (acute pain); assay type: in vivo; settings: rat
Method: (§1) Experiments were performed with adult male Sprague-Dawley rats, weighing 225-300 g (Charles River laboratories, St-Constant, Canada). Rats were housed two per cage on Aspen shavings in a quiet room and kept on a 12 h light/dark cycle and allowed ad libitum access to food and water. The experimental procedures in this study were approved by the Animal Care Committee of Université de Sherbrooke (animal care protocol 035-13) and were in accordance with policies and directives of the Canadian Council on Animal Care.
Acute pain was assessed using the tail-flick test (Tail-Flick Analgesia meter V2.00, Colombus Instruments, Columbus, Ohio, USA). Tail-flick test measures sensitivity to a high-intensity light beam focused on the rat tail. The tail-flick apparatus was set at a light intensity of 6 and a cutoff of 10 sec. The latency, in seconds, to flick the tail out of the path of the light beam corresponds to the measure of pain sensitivity or analgesia.
Before testing, animals were individually acclimatized to manipulations and behavioral apparatus 5 min/day for three consecutive days. On the test day, latencies baseline measures were taken before drug injection to provide a mean baseline. […] The effects of compounds or saline on thermal nociception were assessed every 10 min for up to 60 min following i.t. administration.
Tail-flick latencies were converted into the percent maximal possible effect (% MPE) at the time of maxima peak of analgesia. % MPE were calculated according to the following formula: % MPE=[(Test latency)−(Saline latency)]/[(Cutoff)−(Saline latency)]×100. Data are expressed as mean±SEM of 3-8 animals for each different compound.
(§2) Data are expressed as mean±standard errors of the mean (SEM). All graphs and statistical analysis were performed using GraphPad Prism™ 7 (GraphPad software, La Jolla, Calif., USA). […] A difference in response was considered significant with p-values *p<0.05, **p<0.01, and ***p<0.001. […] Then, ED values were determined using the dose-response-stimulation log(agonist) vs response (three parameters).

Sprague-Dawley rats [3] = assay: Formalin test (tonic pain); assay type: in vivo; settings: rat, i.t., 30 μg/kg
Method: as §1
5 min after intrathecal injection of compounds at 30 μg/kg, the rats received 50 μl of diluted 2% formaldehyde (i.e. 5% formalin; Bioshop, Burlington, Ontario) into the plantar surface of the right hind paw. […] Nociceptive behaviors were assessed using a weighted score as described previously. […] The weighted average pain intensity score ranging from 0 to 3 was then calculated by multiplying the time spent in each category by the category weight, summing these products, and dividing by the total time in a given time interval. The pain score was thus calculated from the following formula (1T1+2T2+3T3)/180 where T1, T2, and T3 are the durations (in seconds) spent in behavioral categories 1, 2, or 3, respectively, during each 180-sec block. […]
Data are expressed as mean±standard errors of the mean (SEM). […]

Sprague-Dawley rats [4] = assay: Body temperature (hypothermia); assay type: in vivo; settings: rat; text says i.v., figure legend and method i.t.
Method: Body temperature was measured using a thermistor probe inserted into the rectum of adult Sprague-Dawley rats. Prior to testing, animals were individually acclimatized to manipulations and thermistor probe 5 min/day for three consecutive days. On the test day, temperature was measured before (baseline) and each 10 min for up to 60 min following intrathecal drug administration of compounds. […] Changes in body temperature (Δ body temp) were determined from baseline for each time and each animal. Data represent the mean±SEM of 3-16 rats for each condition.
as §2

rats = assay: Blood pressure (hypotension); assay type: in vivo, rat; settings: 0.01 mg/kg
Method: Mean, systolic and diastolic arterial blood pressure and a heart rate were measured through a catheter (PE 50 filled with heparinized saline) inserted in the right carotid artery and connected to a Micro-Med™ transducer (model TDX-300, USA) linked to a blood pressure Micro-Med™ analyzer (model BPA-100c). Another catheter (PE 10 filled with heparinized saline) was inserted in the left jugular vein for injection of test compounds at 0.01 mg/kg (volume 1 mL/kg, 5-10 s) or 0.9% saline. Blood pressure was recorded each second for up to 900 seconds following intravenous injection.

T2 sequence (P30989 whole entry): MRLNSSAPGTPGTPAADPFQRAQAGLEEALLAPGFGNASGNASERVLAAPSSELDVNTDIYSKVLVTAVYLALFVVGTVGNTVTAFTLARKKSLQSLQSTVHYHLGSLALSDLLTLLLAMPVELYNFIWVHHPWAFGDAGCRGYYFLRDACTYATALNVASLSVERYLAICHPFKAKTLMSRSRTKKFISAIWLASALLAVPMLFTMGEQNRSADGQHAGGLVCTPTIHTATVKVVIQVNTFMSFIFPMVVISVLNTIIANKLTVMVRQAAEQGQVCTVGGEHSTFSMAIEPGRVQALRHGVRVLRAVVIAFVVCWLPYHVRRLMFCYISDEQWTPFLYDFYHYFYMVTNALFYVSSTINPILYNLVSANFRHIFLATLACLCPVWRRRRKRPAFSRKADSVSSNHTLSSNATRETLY
T3 sequence (P30989 whole entry): as above
T3 sequence (P32121 whole entry partner): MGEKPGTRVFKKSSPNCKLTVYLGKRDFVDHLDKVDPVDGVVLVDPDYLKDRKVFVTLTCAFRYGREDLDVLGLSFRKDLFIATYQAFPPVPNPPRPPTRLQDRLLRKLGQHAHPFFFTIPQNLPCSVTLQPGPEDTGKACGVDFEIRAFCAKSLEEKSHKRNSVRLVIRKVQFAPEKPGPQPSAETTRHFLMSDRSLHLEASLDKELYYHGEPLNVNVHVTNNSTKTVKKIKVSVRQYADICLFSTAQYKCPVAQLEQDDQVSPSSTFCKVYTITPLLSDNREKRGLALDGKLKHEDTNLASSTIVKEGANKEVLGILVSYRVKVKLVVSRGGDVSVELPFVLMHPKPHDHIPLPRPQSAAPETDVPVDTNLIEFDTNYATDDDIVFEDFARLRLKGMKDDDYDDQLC

SMILES: CCC(C)[C@H](NC(=O)[C@@H]1Cc2ccc(O)c(c2)CC=CCNCCC[C@H](N)C(=O)N[C@@H](CCCCN)C(=O)N2CCC[C@H]2C(=O)N1)C(=O)N[C@@H](CC(C)C)C(=O)O (some centres unmarked) [Compound 7, c[Orn(All)KPY(All)]IL]
- inhibition at 1 µM (rNTS2 receptor): 66%
- EC50 (hNTS1 (Gαq pathway)): 3 ± 0.05 nM
- EC50 [1]: 3 ± 0.05 nM
- half-life at […] (Plasma stability assay): 30 min
- ED50, tail-flick latency (from AUC) (Sprague-Dawley rats [2]; i.t. injection): 4.63 µg/kg
- Maximal possible effect (MPE) (Sprague-Dawley rats [2]; i.t., 30 μg/kg, 10 min post-injection): 50%
- Dose at which the analgesic effect reached a plateau (Sprague-Dawley rats [2]; i.t., tail-flick): around 10 μg/kg
- Tail-flick latency versus saline/baseline (Sprague-Dawley rats [2]; intrathecal, 30 μg/kg): sustainably increased
- Pain score during the inflammatory phase (AUC) (Sprague-Dawley rats [3]): significantly reduced
- ED50, hypothermia (from AUC) (Sprague-Dawley rats [4]): 1.96 μ/kg
- Hypotension (I.V.) (rats): Triphasique
- Arterial blood pressure response (rats; rat, i.v.): triphasic
- Blood pressure drop, first phase (rats; rat, i.v.): about −25 mmHg
- Blood pressure in phase 3 (rats; rat, i.v.): slowly returned towards baseline
